Measured values as given in patent publication US20220248678A1, “HERBICIDAL COMPOUNDS” (SYNGENTA CROP PROTECTION AG, priority 2019, published 2022).

tested on: Amaranthus palmeri (AMAPA); test: Post-emergence efficacy, glasshouse; format: in vivo; settings: 500 g/Ha, after 13 days, 100=total damage to plant, 0=no damage to plant
Protocol: (§1) Seeds of a variety of test species were shown in standard soil in pots. After cultivation for 14 days (post-emergence) under controlled conditions in a glasshouse (at 24/16° C., day/night; 14 hours light; 65% humidity), the plants were sprayed with an aqueous spray solution derived from the dissolution of the technical active ingredient for each of compounds 1 to 26 from Table A above, in a small amount of acetone and a special solvent and emulsifier mixture referred to as IF50 (11.12% Emulsogen EL360 TM+44.44% N-methylpyrrolidone+44.44% Dowanol DPM glycol ether), to create a 50 g/I solution which was then diluted to required concentration using 0.25% or 1% Empicol ESC70 (Sodium lauryl ether sulphate)+1% ammonium sulphate in water as diluent. These spray test compositions are described as composition numbers C1 to C26, with the numerical value corresponding to the compound number from Table A.
(§2) The test plants were then grown in a glasshouse under controlled conditions (at 24/16° C., day/night; 14 hours light; 65% humidity) and watered twice daily. After 13 days the test was evaluated (100=total damage to plant; 0=no damage to plant).
(§3) Ipomoea hederacea (IPOHE), Euphorbia heterophylla (EPHHL), Chenopodium album (CHEAL), Amaranthus palmeri (AMAPA), Lolium perenne (LOLPE), Digitaria sanguinalis (DIGSA), Eleusine indica (ELEIN), Echinochloa crus-galli (ECHCG), Setaria faberi (SETFA)

SMILES | Control of weed species AMAPA
CCCCOP(=O)(O)c1c[n+](C)nc2ccccc12.O=C([O-])C(F)(F)F [Composition C2] | 60
COP(=O)([O-])c1c[n+](C)nc2ccccc12 [Composition C27] | 100
COP(=O)([O-])c1c[n+](C)nc2ccc(C)cc12 [Composition C13] | 100

same assay, conditions: 1000 g/Ha, after 13 days, 100=total damage to plant, 0=no damage to plant

SMILES | Control of weed species AMAPA
COP(=O)([O-])c1c[n+](C)nc2cc(C)ccc12 [Composition C14] | 100
C[n+]1cc(P(=O)([O-])OCC2CCCO2)c2ccccc2n1 (stereo not drawn) [Composition C25] | 100
COc1ccc2c(P(=O)([O-])OC)c[n+](C)nc2c1 [Composition C17] | 10
COP(=O)([O-])c1c(C)[n+](C)nc2ccccc12 [Composition C9] | 100
C#CCOP(=O)([O-])c1c[n+](C)nc2ccccc12 [Composition C4] | 100
CCOP(=O)(O)c1c[n+](C)nc2ccccc12.O=C([O-])C(F)(F)F [Composition C1] | 90

tested on: Chenopodium album (CHEAL); test: Post-emergence efficacy, glasshouse; format: in vivo; settings: 500 g/Ha, after 13 days, 100=total damage to plant, 0=no damage to plant
Protocol: as §1, §2, §3

SMILES | Control of weed species CHEAL
CCCCOP(=O)(O)c1c[n+](C)nc2ccccc12.O=C([O-])C(F)(F)F [Composition C2] | 70
COP(=O)([O-])c1c[n+](C)nc2ccccc12 [Composition C27] | 100
COP(=O)([O-])c1c[n+](C)nc2ccc(C)cc12 [Composition C13] | 100

same assay, conditions: 1000 g/Ha, after 13 days, 100=total damage to plant, 0=no damage to plant

SMILES | Control of weed species CHEAL
COP(=O)([O-])c1c[n+](C)nc2cc(C)ccc12 [Composition C14] | 100
C[n+]1cc(P(=O)([O-])OCC2CCCO2)c2ccccc2n1 (stereo not drawn) [Composition C25] | 90
COc1ccc2c(P(=O)([O-])OC)c[n+](C)nc2c1 [Composition C17] | 10
COP(=O)([O-])c1c(C)[n+](C)nc2ccccc12 [Composition C9] | 90
C#CCOP(=O)([O-])c1c[n+](C)nc2ccccc12 [Composition C4] | 100
CCOP(=O)(O)c1c[n+](C)nc2ccccc12.O=C([O-])C(F)(F)F [Composition C1] | 100

tested on: Digitaria sanguinalis (DIGSA); test: Post-emergence efficacy, glasshouse; format: in vivo; settings: 500 g/Ha, after 13 days, 100=total damage to plant, 0=no damage to plant
Protocol: as §1, §2, §3

SMILES | Control of weed species DIGSA
CCCCOP(=O)(O)c1c[n+](C)nc2ccccc12.O=C([O-])C(F)(F)F [Composition C2] | 60
COP(=O)([O-])c1c[n+](C)nc2ccccc12 [Composition C27] | 100
COP(=O)([O-])c1c[n+](C)nc2ccc(C)cc12 [Composition C13] | 100

same assay, conditions: 1000 g/Ha, after 13 days, 100=total damage to plant, 0=no damage to plant

SMILES | Control of weed species DIGSA
COP(=O)([O-])c1c[n+](C)nc2cc(C)ccc12 [Composition C14] | 80
C[n+]1cc(P(=O)([O-])OCC2CCCO2)c2ccccc2n1 (stereo not drawn) [Composition C25] | 50
COc1ccc2c(P(=O)([O-])OC)c[n+](C)nc2c1 [Composition C17] | 10
COP(=O)([O-])c1c(C)[n+](C)nc2ccccc12 [Composition C9] | 80
C#CCOP(=O)([O-])c1c[n+](C)nc2ccccc12 [Composition C4] | 100
CCOP(=O)(O)c1c[n+](C)nc2ccccc12.O=C([O-])C(F)(F)F [Composition C1] | 90

tested on: Echinochloa crus-galli (ECHCG); test: Post-emergence efficacy, glasshouse; format: in vivo; settings: 500 g/Ha, after 13 days, 100=total damage to plant, 0=no damage to plant
Protocol: as §1, §2, §3

SMILES | Control of weed species ECHCG
CCCCOP(=O)(O)c1c[n+](C)nc2ccccc12.O=C([O-])C(F)(F)F [Composition C2] | 30
COP(=O)([O-])c1c[n+](C)nc2ccccc12 [Composition C27] | 100
COP(=O)([O-])c1c[n+](C)nc2ccc(C)cc12 [Composition C13] | 90

same assay, conditions: 1000 g/Ha, after 13 days, 100=total damage to plant, 0=no damage to plant

SMILES | Control of weed species ECHCG
COP(=O)([O-])c1c[n+](C)nc2cc(C)ccc12 [Composition C14] | 70
C[n+]1cc(P(=O)([O-])OCC2CCCO2)c2ccccc2n1 (stereo not drawn) [Composition C25] | 90
COc1ccc2c(P(=O)([O-])OC)c[n+](C)nc2c1 [Composition C17] | 10
COP(=O)([O-])c1c(C)[n+](C)nc2ccccc12 [Composition C9] | 40
C#CCOP(=O)([O-])c1c[n+](C)nc2ccccc12 [Composition C4] | 90
CCOP(=O)(O)c1c[n+](C)nc2ccccc12.O=C([O-])C(F)(F)F [Composition C1] | 70

tested on: Eleusine indica (ELEIN); test: Post-emergence efficacy, glasshouse; format: in vivo; settings: 500 g/Ha, after 13 days, 100=total damage to plant, 0=no damage to plant
Protocol: as §1, §2, §3

SMILES | Control of weed species ELEIN
CCCCOP(=O)(O)c1c[n+](C)nc2ccccc12.O=C([O-])C(F)(F)F [Composition C2] | 40
COP(=O)([O-])c1c[n+](C)nc2ccccc12 [Composition C27] | 100
COP(=O)([O-])c1c[n+](C)nc2ccc(C)cc12 [Composition C13] | 100

same assay, conditions: 1000 g/Ha, after 13 days, 100=total damage to plant, 0=no damage to plant

SMILES | Control of weed species ELEIN
COP(=O)([O-])c1c[n+](C)nc2cc(C)ccc12 [Composition C14] | 100
C[n+]1cc(P(=O)([O-])OCC2CCCO2)c2ccccc2n1 (stereo not drawn) [Composition C25] | 100
COc1ccc2c(P(=O)([O-])OC)c[n+](C)nc2c1 [Composition C17] | 10
COP(=O)([O-])c1c(C)[n+](C)nc2ccccc12 [Composition C9] | 80
C#CCOP(=O)([O-])c1c[n+](C)nc2ccccc12 [Composition C4] | 100
CCOP(=O)(O)c1c[n+](C)nc2ccccc12.O=C([O-])C(F)(F)F [Composition C1] | 90

tested on: Euphorbia heterophylla (EPHHL); test: Post-emergence efficacy, glasshouse; format: in vivo; settings: 500 g/Ha, after 13 days, 100=total damage to plant, 0=no damage to plant
Protocol: as §1, §2, §3

SMILES | Control of weed species EPHHL
CCCCOP(=O)(O)c1c[n+](C)nc2ccccc12.O=C([O-])C(F)(F)F [Composition C2] | 100
COP(=O)([O-])c1c[n+](C)nc2ccccc12 [Composition C27] | 100
COP(=O)([O-])c1c[n+](C)nc2ccc(C)cc12 [Composition C13] | 100

same assay, conditions: 1000 g/Ha, after 13 days, 100=total damage to plant, 0=no damage to plant

SMILES | Control of weed species EPHHL
COP(=O)([O-])c1c[n+](C)nc2cc(C)ccc12 [Composition C14] | 100
C[n+]1cc(P(=O)([O-])OCC2CCCO2)c2ccccc2n1 (stereo not drawn) [Composition C25] | 80
COc1ccc2c(P(=O)([O-])OC)c[n+](C)nc2c1 [Composition C17] | 20
COP(=O)([O-])c1c(C)[n+](C)nc2ccccc12 [Composition C9] | 50
C#CCOP(=O)([O-])c1c[n+](C)nc2ccccc12 [Composition C4] | 100
CCOP(=O)(O)c1c[n+](C)nc2ccccc12.O=C([O-])C(F)(F)F [Composition C1] | 100

tested on: Ipomoea hederacea (IPOHE); test: Post-emergence efficacy, glasshouse; format: in vivo; settings: 500 g/Ha, after 13 days, 100=total damage to plant, 0=no damage to plant
Protocol: as §1, §2, §3

SMILES | Control of weed species IPOHE
CCCCOP(=O)(O)c1c[n+](C)nc2ccccc12.O=C([O-])C(F)(F)F [Composition C2] | 80
COP(=O)([O-])c1c[n+](C)nc2ccccc12 [Composition C27] | 90
COP(=O)([O-])c1c[n+](C)nc2ccc(C)cc12 [Composition C13] | 70

same assay, conditions: 1000 g/Ha, after 13 days, 100=total damage to plant, 0=no damage to plant

SMILES | Control of weed species IPOHE
COP(=O)([O-])c1c[n+](C)nc2cc(C)ccc12 [Composition C14] | 100
C[n+]1cc(P(=O)([O-])OCC2CCCO2)c2ccccc2n1 (stereo not drawn) [Composition C25] | 60
COc1ccc2c(P(=O)([O-])OC)c[n+](C)nc2c1 [Composition C17] | 10
COP(=O)([O-])c1c(C)[n+](C)nc2ccccc12 [Composition C9] | 90
C#CCOP(=O)([O-])c1c[n+](C)nc2ccccc12 [Composition C4] | 100
CCOP(=O)(O)c1c[n+](C)nc2ccccc12.O=C([O-])C(F)(F)F [Composition C1] | 100

tested on: Lolium perenne (LOLPE); test: Post-emergence efficacy, glasshouse; format: in vivo; settings: 500 g/Ha, after 13 days, 100=total damage to plant, 0=no damage to plant
Protocol: as §1, §2, §3

SMILES | Control of weed species LOLPE
CCCCOP(=O)(O)c1c[n+](C)nc2ccccc12.O=C([O-])C(F)(F)F [Composition C2] | 30
COP(=O)([O-])c1c[n+](C)nc2ccccc12 [Composition C27] | 90
COP(=O)([O-])c1c[n+](C)nc2ccc(C)cc12 [Composition C13] | 30

same assay, conditions: 1000 g/Ha, after 13 days, 100=total damage to plant, 0=no damage to plant

SMILES | Control of weed species LOLPE
COP(=O)([O-])c1c[n+](C)nc2cc(C)ccc12 [Composition C14] | 60
C[n+]1cc(P(=O)([O-])OCC2CCCO2)c2ccccc2n1 (stereo not drawn) [Composition C25] | 60
COc1ccc2c(P(=O)([O-])OC)c[n+](C)nc2c1 [Composition C17] | 0
COP(=O)([O-])c1c(C)[n+](C)nc2ccccc12 [Composition C9] | 50
C#CCOP(=O)([O-])c1c[n+](C)nc2ccccc12 [Composition C4] | 90
CCOP(=O)(O)c1c[n+](C)nc2ccccc12.O=C([O-])C(F)(F)F [Composition C1] | 60

tested on: Setaria faberi (SETFA); test: Post-emergence efficacy, glasshouse; format: in vivo; settings: 500 g/Ha, after 13 days, 100=total damage to plant, 0=no damage to plant
Protocol: as §1, §2, §3

SMILES | Control of weed species SETFA
CCCCOP(=O)(O)c1c[n+](C)nc2ccccc12.O=C([O-])C(F)(F)F [Composition C2] | 60
COP(=O)([O-])c1c[n+](C)nc2ccccc12 [Composition C27] | 100
COP(=O)([O-])c1c[n+](C)nc2ccc(C)cc12 [Composition C13] | 100

same assay, conditions: 1000 g/Ha, after 13 days, 100=total damage to plant, 0=no damage to plant

SMILES | Control of weed species SETFA
COP(=O)([O-])c1c[n+](C)nc2cc(C)ccc12 [Composition C14] | 90
C[n+]1cc(P(=O)([O-])OCC2CCCO2)c2ccccc2n1 (stereo not drawn) [Composition C25] | 80
COc1ccc2c(P(=O)([O-])OC)c[n+](C)nc2c1 [Composition C17] | 10
COP(=O)([O-])c1c(C)[n+](C)nc2ccccc12 [Composition C9] | 70
C#CCOP(=O)([O-])c1c[n+](C)nc2ccccc12 [Composition C4] | 100
CCOP(=O)(O)c1c[n+](C)nc2ccccc12.O=C([O-])C(F)(F)F [Composition C1] | 80
